Blank lines part the entries; values can stand above or below the compound they belong to.
Experiments:
Integrin alpha-V/beta-5 = Integrin alpha-V/beta-5 (Homo sapiens, UniProt P06756+P18084); test: Inhibition of recombinant human Integrin alphaVbeta5 using TMB as substrate incubated for 2 hrs in presence of fibronectin by ELISA; format: protein-complex assay
Integrin alpha-V/beta-6 [1] = target: T1, Integrin alpha-V/beta-6 (Homo sapiens, UniProt P06756+P18564); test: Inhibition of recombinant human Integrin alphaVbeta6 using TMB as substrate incubated for 2 hrs in presence of LAP by ELISA; format: protein-complex assay
T1 sequence (P06756 31-889 limits assumed): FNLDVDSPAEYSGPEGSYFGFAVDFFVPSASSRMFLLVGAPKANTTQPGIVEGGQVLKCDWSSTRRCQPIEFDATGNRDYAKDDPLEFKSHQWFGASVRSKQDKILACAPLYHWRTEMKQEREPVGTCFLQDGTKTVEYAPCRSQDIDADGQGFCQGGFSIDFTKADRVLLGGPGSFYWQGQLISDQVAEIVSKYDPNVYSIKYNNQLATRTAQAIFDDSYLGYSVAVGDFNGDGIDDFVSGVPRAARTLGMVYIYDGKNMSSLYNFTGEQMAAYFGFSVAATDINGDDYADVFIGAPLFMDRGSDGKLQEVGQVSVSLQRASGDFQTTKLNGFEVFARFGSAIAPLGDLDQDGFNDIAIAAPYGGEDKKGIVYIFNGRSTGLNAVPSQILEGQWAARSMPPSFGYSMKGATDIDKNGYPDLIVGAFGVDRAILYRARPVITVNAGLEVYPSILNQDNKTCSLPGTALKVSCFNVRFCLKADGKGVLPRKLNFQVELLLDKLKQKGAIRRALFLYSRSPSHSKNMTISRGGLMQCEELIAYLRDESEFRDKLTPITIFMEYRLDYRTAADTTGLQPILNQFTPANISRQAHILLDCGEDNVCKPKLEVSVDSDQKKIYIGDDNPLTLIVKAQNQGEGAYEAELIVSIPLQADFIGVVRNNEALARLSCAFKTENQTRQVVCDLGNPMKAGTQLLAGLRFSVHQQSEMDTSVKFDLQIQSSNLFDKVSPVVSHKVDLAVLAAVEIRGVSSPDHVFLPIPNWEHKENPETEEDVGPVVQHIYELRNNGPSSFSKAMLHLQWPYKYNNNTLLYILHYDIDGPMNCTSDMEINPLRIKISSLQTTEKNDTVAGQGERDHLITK
T1 sequence (P06756 891-1048 limits assumed): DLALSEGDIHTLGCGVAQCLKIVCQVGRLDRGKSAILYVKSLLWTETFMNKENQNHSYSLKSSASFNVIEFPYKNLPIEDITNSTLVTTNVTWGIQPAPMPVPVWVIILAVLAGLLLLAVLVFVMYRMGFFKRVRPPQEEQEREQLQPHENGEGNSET
T1 sequence (P18564 22-788 limits assumed): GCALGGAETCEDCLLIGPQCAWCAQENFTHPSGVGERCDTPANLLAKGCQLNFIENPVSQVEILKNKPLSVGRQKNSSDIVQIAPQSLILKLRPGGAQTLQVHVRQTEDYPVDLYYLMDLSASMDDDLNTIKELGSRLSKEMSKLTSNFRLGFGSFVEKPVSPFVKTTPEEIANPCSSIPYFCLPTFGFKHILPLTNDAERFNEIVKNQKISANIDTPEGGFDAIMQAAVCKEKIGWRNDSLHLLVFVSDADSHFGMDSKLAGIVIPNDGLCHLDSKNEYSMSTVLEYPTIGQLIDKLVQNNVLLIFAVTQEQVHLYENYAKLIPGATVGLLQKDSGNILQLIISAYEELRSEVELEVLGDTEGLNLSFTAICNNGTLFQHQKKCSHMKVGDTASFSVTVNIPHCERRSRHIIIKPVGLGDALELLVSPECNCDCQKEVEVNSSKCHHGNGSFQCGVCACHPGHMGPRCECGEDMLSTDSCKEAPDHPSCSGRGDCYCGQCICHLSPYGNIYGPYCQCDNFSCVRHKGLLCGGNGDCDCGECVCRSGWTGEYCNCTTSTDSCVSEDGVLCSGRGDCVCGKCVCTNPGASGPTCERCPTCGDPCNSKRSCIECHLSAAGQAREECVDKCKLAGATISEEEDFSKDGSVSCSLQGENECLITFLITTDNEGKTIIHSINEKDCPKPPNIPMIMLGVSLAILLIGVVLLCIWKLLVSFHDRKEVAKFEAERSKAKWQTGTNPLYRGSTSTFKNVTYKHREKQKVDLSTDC

Integrin alpha-4/beta-1 [2] = target: T2, Integrin alpha-4/beta-1 (Homo sapiens, UniProt P05556+P13612); test: Inhibition of recombinant human Integrin alpha4beta1 using TMB as substrate incubated for 2 hrs in presence of VCAM-1 by ELISA; format: protein-complex assay
T2 sequence (P05556 whole entry): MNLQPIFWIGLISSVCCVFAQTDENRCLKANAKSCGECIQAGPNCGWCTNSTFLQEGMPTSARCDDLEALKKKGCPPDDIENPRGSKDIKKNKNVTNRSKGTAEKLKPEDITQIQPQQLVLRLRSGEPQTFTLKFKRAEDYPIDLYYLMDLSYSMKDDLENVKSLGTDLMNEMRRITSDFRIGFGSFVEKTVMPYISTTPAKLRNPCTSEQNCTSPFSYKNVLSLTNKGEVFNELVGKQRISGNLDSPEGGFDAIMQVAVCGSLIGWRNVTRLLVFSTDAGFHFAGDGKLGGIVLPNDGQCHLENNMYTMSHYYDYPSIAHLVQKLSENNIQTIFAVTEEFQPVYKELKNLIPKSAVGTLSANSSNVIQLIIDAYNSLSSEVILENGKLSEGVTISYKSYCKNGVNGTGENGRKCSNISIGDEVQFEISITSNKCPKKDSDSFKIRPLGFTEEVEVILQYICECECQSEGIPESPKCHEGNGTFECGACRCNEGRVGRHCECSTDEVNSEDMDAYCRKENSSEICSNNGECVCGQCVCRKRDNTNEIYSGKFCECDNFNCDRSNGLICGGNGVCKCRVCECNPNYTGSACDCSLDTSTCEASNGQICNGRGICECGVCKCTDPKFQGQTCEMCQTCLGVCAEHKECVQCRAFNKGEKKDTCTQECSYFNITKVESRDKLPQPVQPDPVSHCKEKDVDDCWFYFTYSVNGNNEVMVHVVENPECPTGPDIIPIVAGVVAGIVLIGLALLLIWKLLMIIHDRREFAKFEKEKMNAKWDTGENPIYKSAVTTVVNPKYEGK
T2 sequence (P13612 whole entry): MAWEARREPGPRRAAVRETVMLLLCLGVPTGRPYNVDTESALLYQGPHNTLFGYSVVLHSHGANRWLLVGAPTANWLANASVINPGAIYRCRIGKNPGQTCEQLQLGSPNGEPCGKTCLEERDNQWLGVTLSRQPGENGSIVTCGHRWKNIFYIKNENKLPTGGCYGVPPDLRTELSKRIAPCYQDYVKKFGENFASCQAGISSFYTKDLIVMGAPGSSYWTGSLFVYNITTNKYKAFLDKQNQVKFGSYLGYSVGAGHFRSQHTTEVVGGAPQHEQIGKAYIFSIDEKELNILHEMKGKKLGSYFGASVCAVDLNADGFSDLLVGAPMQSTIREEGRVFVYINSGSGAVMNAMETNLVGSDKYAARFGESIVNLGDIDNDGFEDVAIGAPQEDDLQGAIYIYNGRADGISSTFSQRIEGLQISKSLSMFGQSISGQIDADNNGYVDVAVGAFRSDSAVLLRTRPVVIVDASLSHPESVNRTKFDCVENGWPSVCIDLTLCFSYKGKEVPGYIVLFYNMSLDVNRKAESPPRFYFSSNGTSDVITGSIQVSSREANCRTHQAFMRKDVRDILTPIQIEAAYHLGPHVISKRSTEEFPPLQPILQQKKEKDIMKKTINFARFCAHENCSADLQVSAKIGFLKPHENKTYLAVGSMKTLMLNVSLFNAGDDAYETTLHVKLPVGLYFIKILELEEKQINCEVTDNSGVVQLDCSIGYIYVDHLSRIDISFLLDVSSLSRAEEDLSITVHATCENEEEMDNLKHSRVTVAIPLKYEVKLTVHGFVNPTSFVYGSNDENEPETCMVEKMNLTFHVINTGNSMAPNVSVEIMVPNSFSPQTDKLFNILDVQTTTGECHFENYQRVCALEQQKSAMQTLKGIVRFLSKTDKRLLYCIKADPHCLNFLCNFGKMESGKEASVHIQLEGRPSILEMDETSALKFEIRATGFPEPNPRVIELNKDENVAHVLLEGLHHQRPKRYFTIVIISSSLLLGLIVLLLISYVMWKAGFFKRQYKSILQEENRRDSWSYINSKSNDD

Integrin alpha-5/beta-1 [3] = target: T3, Integrin alpha-5/beta-1 (Homo sapiens, UniProt P05556+P08648); test: Inhibition of recombinant human Integrin alpha5beta1 using TMB as substrate incubated for 2 hrs in presence of fibronectin by ELISA; format: protein-complex assay
Integrin alpha-V/beta-1 [4] = target: T4, Integrin alpha-V/beta-1 (Homo sapiens, UniProt P05556+P06756); test: Inhibition of recombinant human Integrin alphaVbeta1 using TMB as substrate incubated for 2 hrs in presence of fibronectin by ELISA; format: protein-complex assay
Integrin alpha-V/beta-8 [5] = target: T5, Integrin alpha-V/beta-8 (Homo sapiens, UniProt P06756+P26012); test: Inhibition of recombinant human Integrin alphaVbeta8 using TMB as substrate incubated for 2 hrs in presence of LAP by ELISA; format: protein-complex assay
Integrin alpha-V/beta-3 [6] = target: T6, Integrin alpha-V/beta-3 (Homo sapiens, UniProt P05106+P06756); test: Inhibition of recombinant human Integrin alphaVbeta3 using TMB as substrate incubated for 2 hrs in presence of vitronectin by ELISA; format: protein-complex assay
T6 sequence (P05106 27-788 limits assumed): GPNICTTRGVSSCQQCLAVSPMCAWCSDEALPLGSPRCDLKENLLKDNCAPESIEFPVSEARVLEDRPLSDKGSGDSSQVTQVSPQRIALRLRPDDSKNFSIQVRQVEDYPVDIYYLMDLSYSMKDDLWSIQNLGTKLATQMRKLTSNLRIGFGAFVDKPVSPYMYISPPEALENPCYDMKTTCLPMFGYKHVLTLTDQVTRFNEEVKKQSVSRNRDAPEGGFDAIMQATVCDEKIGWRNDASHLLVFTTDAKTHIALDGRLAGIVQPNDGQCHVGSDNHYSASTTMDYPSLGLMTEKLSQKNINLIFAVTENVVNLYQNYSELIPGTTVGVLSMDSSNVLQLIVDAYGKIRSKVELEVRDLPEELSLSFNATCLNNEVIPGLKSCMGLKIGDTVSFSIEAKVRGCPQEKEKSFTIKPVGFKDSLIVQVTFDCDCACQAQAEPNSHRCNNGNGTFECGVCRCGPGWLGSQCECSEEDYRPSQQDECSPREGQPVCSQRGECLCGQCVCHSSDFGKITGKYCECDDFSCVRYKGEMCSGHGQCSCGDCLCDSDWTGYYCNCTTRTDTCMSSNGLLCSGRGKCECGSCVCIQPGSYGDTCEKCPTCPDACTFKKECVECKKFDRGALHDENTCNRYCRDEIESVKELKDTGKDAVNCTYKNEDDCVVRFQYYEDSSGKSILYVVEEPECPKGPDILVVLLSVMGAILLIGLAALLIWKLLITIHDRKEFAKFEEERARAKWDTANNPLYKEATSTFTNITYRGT
T6 sequence (P06756 31-889 limits assumed): as the sequence (P06756 31-889 limits assumed) above
T6 sequence (P06756 891-1048 limits assumed): as the sequence (P06756 891-1048 limits assumed) above

[7] = Apparent permeability across basolateral to apical side in dog MDCK-MDR1 cells incubated for 60 mins by HPLC analysis; format: ADME, cell-based, Canis lupus familiaris
[8] = Apparent permeability across apical to basolateral side in dog MDCK-MDR1 cells incubated for 60 mins by HPLC analysis; format: ADME, cell-based, Canis lupus familiaris
[9] = AUC (0 to infinity) in Wistar rat at 10 mg/kg,po administration; format: ADME, organism-based; conditions: in vivo
[10] = Tmax in Sprague-Dawley rat at 30 mg/kg,sc administration; format: ADME, organism-based; conditions: in vivo
[11] = Half life in Wistar rat at 10 mg/kg,po administration; format: ADME, organism-based; conditions: in vivo
[12] = Clearance in Wistar-Han rat at 1 mg/kg,iv administration; format: ADME, organism-based; conditions: in vivo
Integrin alpha-V/beta-1 [13] = target: T4, Integrin alpha-V/beta-1; test: Inhibition of human Integrin alphaVbeta1 expressed in CHO-B2 cell cocultured with TGF-beta expressing Mv1Lu cells assessed as inhibition of integrin alphaVbeta1 mediated TGF-beta transactivation by luciferase assay; format: cell-based
[14] = AUC (0 to infinity) in Sprague-Dawley rat at 30 mg/kg,sc administration; format: ADME, organism-based; conditions: in vivo
[15] = Oral bioavailability in Wistar rat at 10 mg/kg administration; format: ADME, organism-based; conditions: in vivo
[16] = Cmax in Wistar rat at 10 mg/kg,po administration; format: ADME, organism-based; conditions: in vivo
[17] = Drug concentration in choline-deficient high-fat diet induced Wistar-Han rat plasma at sc administration for 6 weeks from period of week 7 to 12 during high-fat diet treatment; format: ADME, organism-based; conditions: in vivo, 1008 h
[18] = AUC (0 to 24 hrs) in Wistar rat at 10 mg/kg,po administration; format: ADME, organism-based; conditions: in vivo
Rattus norvegicus = test: Antifibrotic activity against choline-deficient high-fat diet induced Wistar-Han rat liver fibrosis model assessed as reduction in liver fibrosis at sc administration for 6 weeks from period of week 7 to 12 during high-fat diet treatment by picrosirius red staining based analysis; format: functional, organism-based
[19] = AUC (0 to infinity) in Wistar-Han rat at 1 mg/kg,iv administration; format: ADME, organism-based; conditions: in vivo
Integrin alpha-V/beta-1 [20] = target: T4, Integrin alpha-V/beta-1; test: Inhibition of recombinant human Integrin alphaVbeta1 mediated cellular adhesion expressed in CHO-B2 cell incubated for 24 hrs in presence of Ca2+ and Mg2+ by real-time cell analysis; format: cell-based
Integrin alpha-4/beta-1 [21] = target: T2, Integrin alpha-4/beta-1; test: Inhibition of Integrin alpha4beta1 mediated cellular adhesion in human Jurkat cells incubated for 24 hrs in presence of Ca2+ and Mg2+ by real-time cell analysis; format: cell-based
[22] = Cmax in Sprague-Dawley rat at 30 mg/kg,sc administration; format: ADME, organism-based; conditions: in vivo
[23] = Half life in Sprague-Dawley rat at 30 mg/kg,sc administration; format: ADME, organism-based; conditions: in vivo
[24] = Volume of distribution at steady state in Wistar-Han rat at 1 mg/kg,iv administration; format: ADME, organism-based; conditions: in vivo, read-out: Vdss
[25] = Bioavailability in Sprague-Dawley rat at 30 mg/kg,sc administration; format: ADME, organism-based; conditions: in vivo
[26] = Drug concentration in choline-deficient high-fat diet induced Wistar-Han rat liver at sc administration for 6 weeks from period of week 7 to 12 during high-fat diet treatment; format: ADME, organism-based; conditions: in vivo, 1008 h
Integrin alpha-V/beta-3 [27] = target: T6, Integrin alpha-V/beta-3; test: Inhibition of recombinant human Integrin alphaVbeta3 mediated cellular adhesion expressed in HEK cells incubated for 24 hrs in presence of Ca2+ and Mg2+ by real-time cell analysis; format: cell-based
Integrin alpha-8/beta-1 = Integrin alpha-8/beta-1 (Homo sapiens, UniProt P05556+P53708); test: Inhibition of recombinant human Integrin alpha8beta1 mediated cellular adhesion expressed in HEK cells incubated for 24 hrs in presence of Ca2+ and Mg2+ by real-time cell analysis; format: cell-based
[28] = Half life in Wistar-Han rat at 1 mg/kg,iv administration; format: ADME, organism-based; conditions: in vivo
Integrin alpha-V/beta-8 [29] = target: T5, Integrin alpha-V/beta-8; test: Inhibition of Integrin alphaVbeta8 in human SNB-19 cells cocultured with TGF-beta expressing Mv1Lu cells assessed as inhibition of integrin alphaVbeta8 mediated TGF-beta transactivation by luciferase assay; format: cell-based
Integrin alpha-5/beta-1 [30] = target: T3, Integrin alpha-5/beta-1; test: Inhibition of Integrin alpha5beta1 mediated cellular adhesion in human HCT-116 cells incubated for 24 hrs in presence of Ca2+ and Mg2+ by real-time cell analysis; format: cell-based
[31] = AUC (0 to 24 hrs) in Sprague-Dawley rat at 30 mg/kg,sc administration; format: ADME, organism-based; conditions: in vivo
Integrin alpha-V/beta-6 [32] = target: T1, Integrin alpha-V/beta-6; test: Inhibition of human Integrin alphaVbeta6 expressed in SW480 cells cocultured with TGF-beta expressing Mv1Lu cells assessed as inhibition of integrin alphaVbeta6 mediated TGF-beta transactivation by luciferase assay; format: cell-based
[33] = AUC (0 to 24 hrs) in Wistar-Han rat at 1 mg/kg,iv administration; format: ADME, organism-based; conditions: in vivo
[34] = Tmax in Wistar rat at 10 mg/kg,po administration; format: ADME, organism-based; conditions: in vivo

SMILES: Cc1ccc(Cl)c(C(=O)N[C@@H](CNC(=O)Cn2c(=O)[nH]c3cc(F)c(F)cc32)C(=O)O)c1F
Papp B→A at 1 h [7]: 0.2 ×10⁻⁶ cm/s | Papp A→B at 1 h [8]: 1.2 ×10⁻⁶ cm/s | IC50 (Integrin alpha-V/beta-1 [4]): 1 nM

SMILES: Cc1ccc(Cl)c(C(=O)N[C@@H](CNC(=O)Cn2c(=O)[nH]c3nc(C)c(F)cc32)C(=O)O)c1F
AUC(0-inf) [9]: 4800 ng·h/mL | Tmax [10]: 4.7 h | Papp B→A at 1 h [7]: 3.2 ×10⁻⁶ cm/s | half-life [11]: 5.2 h | clearance [12]: 0.38 mL/min/kg | IC50 (Integrin alpha-V/beta-1 [13]): 43.7 nM | AUC(0-inf) [14]: 630000 ng·h/mL | Papp A→B at 1 h [8]: 3 ×10⁻⁶ cm/s | bioavailability [15]: 1.3% | Cmax [16]: 390 ng/mL | Drug uptake [17]: Dose-Dependent Effect | AUC(0-t) [18]: 4500 ng·h/mL | Activity (Rattus norvegicus): Dose-Dependent Effect | AUC(0-inf) [19]: 44000 ng·h/mL | IC50 (Integrin alpha-V/beta-1 [20]): 427 nM | IC50 (Integrin alpha-4/beta-1 [21]): > 31600 nM | Cmax [22]: 66000 ng/mL | half-life [23]: 3.3 h | Vd [24]: 0.087 L/kg | bioavailability [25]: 59% | Drug uptake [26]: Dose-Dependent Effect | IC50 (Integrin alpha-V/beta-3 [27]): > 10000 nM | IC50 (Integrin alpha-8/beta-1): > 31600 nM | half-life [28]: 3.32 h | IC50 (Integrin alpha-V/beta-8 [29]): 9550 nM | IC50 (Integrin alpha-V/beta-1 [4]): 0.316 nM | IC50 (Integrin alpha-5/beta-1 [30]): > 31600 nM | AUC(0-t) [31]: 630000 ng·h/mL | IC50 (Integrin alpha-V/beta-6 [32]): > 10000 nM | AUC(0-t) [33]: 44000 ng·h/mL | Tmax [34]: 2.8 h

SMILES: Cc1ccc(Cl)c(C(=O)N[C@@H](CNC(=O)Cn2c(=O)[nH]c3ncncc32)C(=O)O)c1F
Papp B→A at 1 h [7]: 0.7 ×10⁻⁶ cm/s | Papp A→B at 1 h [8]: 0.9 ×10⁻⁶ cm/s | IC50 (Integrin alpha-V/beta-1 [4]): 0.631 nM

SMILES: Cc1cc2[nH]c(=O)n(CC(=O)NC[C@H](NC(=O)c3c(Cl)ccc(C)c3F)C(=O)O)c2cc1C
Papp B→A at 1 h [7]: 0.6 ×10⁻⁶ cm/s | Papp A→B at 1 h [8]: 0.8 ×10⁻⁶ cm/s | IC50 (Integrin alpha-V/beta-1 [4]): 1.58 nM

SMILES: N=C(N)NCCCCC(=O)Nc1ccc(C[C@H](NC(=O)[C@@H]2CCCN2S(=O)(=O)c2ccccc2)C(=O)O)cc1
IC50 (Integrin alpha-V/beta-1 [13]): 10 nM | IC50 (Integrin alpha-V/beta-1 [20]): 12.6 nM | IC50 (Integrin alpha-4/beta-1 [21]): 34.7 nM | IC50 (Integrin alpha-V/beta-3 [27]): > 10000 nM | IC50 (Integrin alpha-8/beta-1): 5890 nM | IC50 (Integrin alpha-V/beta-8 [29]): 1740 nM | IC50 (Integrin alpha-5/beta-1 [30]): 1000 nM | IC50 (Integrin alpha-V/beta-6 [32]): 316 nM

Second part, the compound after the results:

IC50 (Integrin alpha-V/beta-5): 3980 nM | IC50 (Integrin alpha-V/beta-6 [1]): 3980 nM | IC50 (Integrin alpha-4/beta-1 [2]): 1580 nM | IC50 (Integrin alpha-5/beta-1 [3]): 63.1 nM | IC50 (Integrin alpha-V/beta-1 [4]): 0.631 nM | IC50 (Integrin alpha-V/beta-8 [5]): 2000 nM | IC50 (Integrin alpha-V/beta-3 [6]): 5010 nM
SMILES: Cc1ccc(Cl)c(C(=O)N[C@@H](CNC(=O)Cn2c(=O)[nH]c3ncccc32)C(=O)O)c1F

IC50 (Integrin alpha-V/beta-1 [4]): 316 nM
SMILES: O=C(CN1C(=O)NCc2ccccc21)NC[C@H](NC(=O)c1ccccc1Cl)C(=O)O

Papp B→A at 1 h [7]: 1.2 ×10⁻⁶ cm/s | Papp A→B at 1 h [8]: 1.2 ×10⁻⁶ cm/s | IC50 (Integrin alpha-V/beta-1 [4]): 0.631 nM
SMILES: COc1ccc(Cl)c(C(=O)N[C@@H](CNC(=O)Cn2c(=O)[nH]c3ccncc32)C(=O)O)c1F

IC50 (Integrin alpha-V/beta-5): > 10000 nM | IC50 (Integrin alpha-V/beta-6 [1]): 3160 nM | IC50 (Integrin alpha-4/beta-1 [2]): 1580 nM | IC50 (Integrin alpha-5/beta-1 [3]): 251 nM | IC50 (Integrin alpha-V/beta-1 [4]): 0.631 nM | IC50 (Integrin alpha-V/beta-8 [5]): 1580 nM | IC50 (Integrin alpha-V/beta-3 [6]): > 10000 nM
SMILES: COc1ccc(Cl)c(C(=O)N[C@@H](CNC(=O)Cn2c(=O)[nH]c3ncccc32)C(=O)O)c1F

IC50 (Integrin alpha-V/beta-5): 1260 nM | IC50 (Integrin alpha-V/beta-6 [1]): > 10000 nM | IC50 (Integrin alpha-4/beta-1 [2]): 200 nM | IC50 (Integrin alpha-5/beta-1 [3]): 631 nM | IC50 (Integrin alpha-V/beta-1 [4]): 200 nM | IC50 (Integrin alpha-V/beta-8 [5]): 7940 nM | IC50 (Integrin alpha-V/beta-3 [6]): 3980 nM
SMILES: O=C(NC(CNc1ccc(N2CCNC2=O)cc1)C(=O)O)c1c(Cl)cccc1Cl (racemic)

IC50 (Integrin alpha-V/beta-1 [4]): > 10000 nM
SMILES: O=C(CN1C(=O)Cc2ccccc21)NC[C@H](NC(=O)c1ccccc1Cl)C(=O)O

IC50 (Integrin alpha-V/beta-5): > 10000 nM | IC50 (Integrin alpha-V/beta-6 [1]): > 10000 nM | IC50 (Integrin alpha-4/beta-1 [2]): 2510 nM | IC50 (Integrin alpha-5/beta-1 [3]): 398 nM | IC50 (Integrin alpha-V/beta-1 [4]): 5.01 nM | IC50 (Integrin alpha-V/beta-8 [5]): 7940 nM | IC50 (Integrin alpha-V/beta-3 [6]): > 10000 nM
SMILES: O=C(Cn1c(=O)[nH]c2ncccc21)NC[C@H](NC(=O)c1c(F)cccc1Cl)C(=O)O

IC50 (Integrin alpha-V/beta-5): > 10000 nM | IC50 (Integrin alpha-V/beta-6 [1]): 6310 nM | IC50 (Integrin alpha-4/beta-1 [2]): 5010 nM | IC50 (Integrin alpha-5/beta-1 [3]): 158 nM | IC50 (Integrin alpha-V/beta-1 [4]): 1.26 nM | IC50 (Integrin alpha-V/beta-8 [5]): 3980 nM | IC50 (Integrin alpha-V/beta-3 [6]): > 10000 nM
SMILES: COc1cc(F)c(C(=O)N[C@@H](CNC(=O)Cn2c(=O)[nH]c3ncccc32)C(=O)O)c(Cl)c1

Reference: ChEMBL document CHEMBL5500400, “Design and Discovery of a Potent and Selective Inhibitor of Integrin αvβ1” (J Med Chem, 2024)
